Experimental data published in patent publication US20220030867A1 (priority 2018, published 2022).

How the values were obtained:
Fusarium culmorum [1] = assay: whole plant or invertebrate; type: in vivo, Fusarium culmorum on wheat spikelets cv. Monsun; details: in Triticum aestivum, read-out: control of Fusarium culmorum
[2] = test system: Mycosphaerella graminicola (Septoria tritici); assay: Mycosphaerella graminicola (Septoria tritici) / liquid culture (Septoria blotch); type: cell-based; details: Zymoseptoria tritici, growth inhibition photometrically 4-5 days after application, vs untreated control
Protocol: Mycosphaerella graminicola (Septoria tritici)/Liquid Culture (Septoria Blotch)
(§1) Conidia of the fungus from cryogenic storage are directly mixed into nutrient broth (PDB potato dextrose broth). After placing a (DMSO) solution of test compound into a microtiter plate (96-well format), the nutrient broth containing the fungal spores is added. The test plates are incubated at 24° C. and the inhibition of growth is determined photometrically 4-5 days after application.

[3] = test system: Magnaporthe grisea (Pyricularia oryzae); assay: microbe, parasite or virus in culture; type: cell-based; details: read-out: control of Magnaporthe grisea
[4] = test system: Magnaporthe grisea (Pyricularia oryzae); assay: whole plant or invertebrate; type: in vivo, Magnaporthe grisea on rice leaf segments cv. Ballila; details: foliar, read-out: control of Magnaporthe grisea
[5] = test system: Glomerella lagenarium (Colletotrichum lagenarium); assay: Glomerella lagenarium (Colletotrichum lagenarium) / liquid culture (anthracnose); type: cell-based; details: Colletotrichum orbiculare, growth inhibition photometrically 3-4 days after application, vs untreated control
Protocol: as §1, with “measured” for “determined”, “3-4” for “4-5”

Sclerotinia sclerotiorum = Sclerotinia sclerotiorum / liquid culture (cottony rot); type: cell-based; details: growth inhibition photometrically 3-4 days after application, vs untreated control
Protocol: Sclerotinia sclerotiorum/Liquid Culture (Cottony Rot)
as §1, with “Mycelia fragments of a newly grown liquid culture” for “Conidia”, “fungus” for “fungus from cryogenic storage”, “(Vogels” for “(PDB potato dextrose”, “format)” for “format),”, “material” for “spores”, “3-4” for “4-5”

[6] = test system: Monographella nivalis (Microdochium nivale); assay: Monographella nivalis (Microdochium nivale) / liquid culture (foot rot cereals); type: cell-based; details: growth inhibition photometrically 4-5 days after application, vs untreated control
Protocol: Monographella nivalis (Microdochium nivale)/Liquid Culture (Foot Rot Cereals)
as §1

Fusarium culmorum [7] = assay: microbe, parasite or virus in culture; type: cell-based; details: read-out: control of Fusarium culmorum
[8] = test system: Botryotinia fuckeliana (Botrytis cinerea); assay: Botryotinia fuckeliana (Botrytis cinerea) / liquid culture (gray mould); type: cell-based; details: growth inhibition photometrically 3-4 days after application, vs untreated control
Protocol: Botryotinia fuckeliana (Botrytis cinerea)/Liquid Culture (Gray Mould)
as §1, with “(Vogels” for “(PDB potato dextrose”, “3-4” for “4-5”

| Structure (SMILES) | pest or weed control at 200 ppm (Fusarium culmorum [1]) [%] | inhibition of growth at 200 ppm [2] [%] | inhibition of growth at 200 ppm [3] [%] | pest or weed control at 200 ppm [4] [%] | melting point [°C] | inhibition of growth at 200 ppm [5] [%] | inhibition of growth at 20 ppm (Sclerotinia sclerotiorum) [%] | inhibition of growth at 200 ppm [6] [%] | inhibition of growth at 200 ppm (Fusarium culmorum [7]) [%] | inhibition of growth at 200 ppm [8] [%] |
| --- | --- | --- | --- | --- | --- | --- | --- | --- | --- | --- |
| CC(C)CC(F)(Cc1ccccc1)C(=O)Nc1cnc2c(F)cccc2c1 (stereo not drawn) [Compound E-1] | ≥ 80 | ≥ 80 | ≥ 80 | ≥ 80 |  |  |  |  |  |  |
| C=C(Cl)CC(Cc1ccccc1)C(=O)Nc1cc2cccc(F)c2nc1C (stereo not drawn) [Compound E-4, 2-benzyl-4-chloro-N-(8-fluoro-2-methyl-3-quinolyl)pent-4-enamide] |  | ≥ 80 | ≥ 80 |  | 96 to 99 |  |  |  |  |  |
| Cc1nc2c(F)cccc2cc1NC(=O)C(Cc1ccccc1)CC1(C)CC1 (stereo not drawn) [Compound E-89, 2-benzyl-N-(8-fluoro-2-methyl-3-quinolyl)-3-(1-methylcyclopropyl)propanamide] | ≥ 80 |  | ≥ 80 | ≥ 80 | 162 to 163 | ≥ 80 | ≥ 80 | ≥ 80 | ≥ 80 | ≥ 80 |
| Cc1c(NC(=O)C(Cc2ccccc2)CC2(C)CC2)cnc2c(F)cccc12 (stereo not drawn) [Compound E-90, 2-benzyl-N-(8-fluoro-4-methyl-3-quinolyl)-3-(1-methylcyclopropyl)propanamide] | ≥ 80 |  | ≥ 80 | ≥ 80 | 144 to 146 | ≥ 80 | ≥ 80 | ≥ 80 | ≥ 80 | ≥ 80 |
| CC1(CC(Cc2ccccc2)C(=O)Nc2cnc3c(F)cccc3c2)CC1 (stereo not drawn) [Compound E-91, 2-benzyl-N-(8-fluoro-3-quinolyl)-3-(1-methylcyclopropyl)propanamide] | ≥ 80 |  | ≥ 80 | ≥ 80 | 135 to 136 | ≥ 80 | ≥ 80 | ≥ 80 | ≥ 80 | ≥ 80 |
| C=C(C)CC(Cc1ccccc1)C(=O)Nc1cc2cccc(F)c2nc1C (stereo not drawn) [Compound E-92, 2-benzyl-N-(8-fluoro-2-methyl-3-quinolyl)-4-methyl-pent-4-enamide] | ≥ 80 | ≥ 80 | ≥ 80 |  | 97 to 99 |  |  |  |  |  |
| C=C(C)CC(Cc1ccccc1)C(=O)Nc1cnc2c(F)cccc2c1C (stereo not drawn) [Compound E-93, 2-benzyl-N-(8-fluoro-4-methyl-3-quinolyl)-4-methyl-pent-4-enamide] |  | ≥ 80 | ≥ 80 | ≥ 80 | 116 to 118 |  | ≥ 80 |  |  |  |
| Cc1c(NC(=O)C(Cc2ccccc2)CC(C)(C)C)cnc2c(F)cccc12 (stereo not drawn) [Compound E-96, 2-benzyl-N-(8-fluoro-4-methyl-3-quinolyl)-4,4-dimethyl-pentanamide] | ≥ 80 |  | ≥ 80 | ≥ 80 | 135 to 136 | ≥ 80 | ≥ 80 | ≥ 80 | ≥ 80 | ≥ 80 |
| C=C(Cl)C[C@@H](Cc1ccccc1)C(=O)Nc1cc2cccc(F)c2nc1C [Compound F-25, (2R)-2-benzyl-4-chloro-N-(8-fluoro-2-methyl-3-quinolyl)pent-4-enamide] | ≥ 80 | ≥ 80 | ≥ 80 | ≥ 80 |  | ≥ 80 |  |  | ≥ 80 | ≥ 80 |
| C=C(Cl)C[C@@H](Cc1ccccc1)C(=O)Nc1cnc2c(F)cccc2c1C [Compound F-27, (2R)-2-benzyl-4-chloro-N-(8-fluoro-4-methyl-3-quinolyl)pent-4-enamide] |  | ≥ 80 | ≥ 80 |  |  | ≥ 80 |  | ≥ 80 |  | ≥ 80 |
| Cc1c(NC(=O)[C@@H](Cc2ccccc2)CC(C)(C)C)cnc2c(F)cccc12 [Compound F-36, (2R)-2-benzyl-N-(8-fluoro-4-methyl-3-quinolyl)-4,4-dimethyl-pentanamide] | ≥ 80 |  | ≥ 80 | ≥ 80 |  | ≥ 80 | ≥ 80 | ≥ 80 | ≥ 80 | ≥ 80 |
| Cc1c(NC(=O)[C@@H](Cc2ccccc2)CC2(C)CC2)cnc2c(F)cccc12 [Compound F-40, (2R)-2-benzyl-N-(8-fluoro-4-methyl-3-quinolyl)-3-(1-methylcyclopropyl)propanamide] | ≥ 80 | ≥ 80 | ≥ 80 |  |  | ≥ 80 | ≥ 80 | ≥ 80 | ≥ 80 | ≥ 80 |
| C=C(Cl)C[C@@](C)(Cc1ccccc1)C(=O)Nc1cnc2c(F)cccc2c1C [Compound F-42, (2R)-2-benzyl-4-chloro-N-(8-fluoro-4-methyl-3-quinolyl)-2-methyl-pent-4-enamide] | ≥ 80 |  | ≥ 80 | ≥ 80 |  | ≥ 80 | ≥ 80 | ≥ 80 | ≥ 80 | ≥ 80 |
| C=C(Cl)C[C@](C)(Cc1ccccc1)C(=O)Nc1cc2cccc(F)c2nc1C [Compound F-44, (2S)-2-benzyl-4-chloro-N-(8-fluoro-2-methyl-3-quinolyl)-2-methyl-pent-4-enamide] | ≥ 80 |  | ≥ 80 | ≥ 80 |  | ≥ 80 | ≥ 80 | ≥ 80 | ≥ 80 | ≥ 80 |
